Measured values: US10407467B2, “Polymyxin derivatives and their use in combination therapy together with different antibiotics” (priority 2013, dated 2019)
Structures can show the parent of a compound that is named as a salt. Numbered stars: 1 amine (or outer) side, 2 acyl side, 3 side chain; on linkers, the order of the positions; unused ones are H or OH. Bridge positions count the residues as written; N and C are the ends. Square brackets hold non-standard residues; d marks the D form. Peptide text beside a SMILES is read from it. * marks the point of attachment. ξ: configuration not given here. Acetyl(cis-4-NH-cyclohexyl) = O=C(C[C@H]1CC[C@@H](N[*:1])CC1)[*:2]; ξHexahydromandeloyl = O=C(C(O)C1CCCCC1)*; Cyclohexylacetyl = O=C(CC1CCCCC1)*; Thr(3ξ) = CC(O)[C@H](N)C(=O)O; Octanoyl = CCCCCCCC(=O)*; Dab = NCC[C@H](N)C(=O)O; X4 = NC1CCCC1C(=O)*

How the values were obtained:
Test in all cases: MIC, compound in combination with a second agent (broth microdilution)
Type in all cases: cell-based
Klebsiella pneumoniae = details: for MIC K. pneumoniae ATCC 4352: strain ATCC 4352
Outline: (§1)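 Read-out is the total-drug MIC of a 1:1 weight ratio combination with another agent, e.g. rifampicin. Duplicates within 2-fold gave the lower value; wider spread meant a non-valid assay. Where compounds were tested multiple times, the mode is given.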

Acinetobacter baumannii = details: 1:1 (wt:wt) combination with Rifampicin
Outline: as §1

Escherichia coli = details: 1:1 (wt:wt) combination with Rifampicin
Outline: as §1

Pseudomonas aeruginosa = details: 1:1 (wt:wt) combination with Rifampicin
Outline: as §1

[1] = 1:1 (wt:wt) combination with Rifampicin, MIC = total drug concentration, strain ATCC-BAA-2146
[2] = 1:1 (wt:wt) combination with Rifampicin, MIC = total drug concentration, strain CCUG-59348
[3] = MIC = total drug concentration, strain ATCC BAA-747
[4] = MIC = total drug concentration, strain CCUG57249
[5] = MIC = total drug concentration, strain NCTC 13423
[6] = MIC = total drug concentration, strain NCTC 13424
[7] = MIC = total drug concentration, strain ATCC25922
[8] = MIC = total drug concentration, strain NCTC9001
[9] = MIC = total drug concentration, strain ATCC 27853
[10] = MIC = total drug concentration, strain ATCC CRM-9027
[11] = MIC = total drug concentration, strain ATCC-47
[12] = MIC = total drug concentration, strain CCUG 59626
[13] = 1:1 (wt:wt) combination with Rifampicin, MIC = total drug concentration
[14] = 1:1 (wt:wt) combination with Rifampicin, MIC is total drug concentration
[15] = MIC is total drug concentration
[16] = Ratio of Compound to Rifampicin 1:1, total drug concentration
[17] = Ratio of Compound to Rifampicin 1:3, total drug concentration
[18] = Ratio of Compound to Rifampicin 3:1, total drug concentration

Compound	MIC K. pneumoniae ATCC-BAA-2146 (Klebsiella pneumoniae; [1])	MIC K. pneumoniae CCUG-59348 (Klebsiella pneumoniae; [2])	MIC A. baumannii ATCC BAA-747 (Acinetobacter baumannii; [3])	MIC A. baumannii CCUG57249 (Acinetobacter baumannii; [4])	MIC A. baumannii NCTC 13423 (Acinetobacter baumannii; [5])	MIC A. baumannii NCTC 13424 (Acinetobacter baumannii; [6])	MIC E. coli ATCC25922 (Escherichia coli; [7])	MIC E. coli NCTC9001 (Escherichia coli; [8])	MIC P. aeruginosa ATCC 27853 (Pseudomonas aeruginosa; [9])	MIC P. aeruginosa ATCC CRM-9027 (Pseudomonas aeruginosa; [10])	MIC P. aeruginosa ATCC-47 (Pseudomonas aeruginosa; [11])	MIC P. aeruginosa CCUG 59626 (Pseudomonas aeruginosa; [12])	MIC K. pneumoniae ATCC 4352 (Klebsiella pneumoniae; [13])	further results
CC(C)C[C@@H]1NC(=O)[C@@H](Cc2ccccc2)NC(=O)[C@H](CCN)NC(=O)[C@@H](NC(=O)[C@H](CCN)NC(=O)[C@@H](NC(=O)C[C@H]2CC[C@@H](N)CC2)C(C)O)CCNC(=O)[C@H](C(C)O)NC(=O)[C@H](CCN)NC(=O)[C@H](CCN)NC1=O (stereo partly drawn) [Example 36, Cis-2-(4-aminocyclohexane) ethanoyl polymyxin B nonapeptide, trifluoroacetate salt] ({Acetyl(cis-4-NH-cyclohexyl)}-[Thr(3ξ)][Dab][Dab][Dab][dF]L[Dab][Dab][Thr(3ξ)]; lactam 3-C)	0.5 micrograms/mL	4 micrograms/mL	0.125 micrograms/mL	0.25 micrograms/mL	0.125 micrograms/mL	0.5 micrograms/mL	0.25 micrograms/mL	0.125 micrograms/mL	0.25 micrograms/mL	0.25 micrograms/mL	0.125 micrograms/mL	0.25 micrograms/mL		MIC K. pneumoniae NCTC 13438 (Klebsiella pneumoniae; 1:1 (wt:wt) combination with Rifampicin, MIC = total drug concentration, strain NCTC 13438): 1 micrograms/mL
CC(C)C[C@@H]1NC(=O)[C@@H](Cc2ccccc2)NC(=O)[C@H](CCN)NC(=O)[C@@H](NC(=O)[C@@H](CO)NC(=O)[C@@H](NC(=O)C2CCCC2N)C(C)O)CCNC(=O)[C@H](C(C)O)NC(=O)[C@H](CCN)NC(=O)[C@H](CCN)NC1=O (stereo partly drawn) [Example 44, [2-Amino-cyclopentane-carbonyl]-L-Thr-D-Ser-polymyxin B hepatapeptide, TFA salt] (X4-[Thr(3ξ)][dS][Dab][Dab][dF]L[Dab][Dab][Thr(3ξ)]; lactam 3-C)	1 micrograms/mL	4 micrograms/mL	0.25 micrograms/mL	0.125 micrograms/mL	0.125 micrograms/mL	0.125 micrograms/mL	0.125 micrograms/mL	0.5 micrograms/mL	0.5 micrograms/mL	0.5 micrograms/mL	1 micrograms/mL	0.5 micrograms/mL	0.125 micrograms/mL	
CC(C)C[C@@H]1NC(=O)[C@@H](Cc2ccccc2)NC(=O)[C@H](CCN)NC(=O)[C@@H](NC(=O)[C@@H](CO)NC(=O)[C@@H](NC(=O)C(O)C2CCCCC2)C(C)O)CCNC(=O)[C@H](C(C)O)NC(=O)[C@H](CCN)NC(=O)[C@H](CCN)NC1=O (stereo partly drawn) [Example 46, [2-cyclohexyl-2-hydroxyethanoyl]-L-Thr-D-Ser-polymyxin B heptapeptide, TFA salt] (ξHexahydromandeloyl-[Thr(3ξ)][dS][Dab][Dab][dF]L[Dab][Dab][Thr(3ξ)]; lactam 3-C)	1 micrograms/mL	2 micrograms/mL	≤0.06 micrograms/mL	0.125 micrograms/mL	0.125 micrograms/mL	≤0.06 micrograms/mL	0.125 micrograms/mL	0.25 micrograms/mL	1 micrograms/mL	1 micrograms/mL	2 micrograms/mL	1 micrograms/mL	0.125 micrograms/mL	
CCCCCCCC(=O)N[C@H](C(=O)N[C@H](CO)C(=O)N[C@H]1CCNC(=O)[C@H](C(C)O)NC(=O)[C@H](CCN)NC(=O)[C@H](CCN)NC(=O)[C@H](CC(C)C)NC(=O)[C@@H](Cc2ccccc2)NC(=O)[C@H](CCN)NC1=O)C(C)O (stereo partly drawn) [Example C1, NAB-739 TFA salt, reference compound] (Octanoyl-[Thr(3ξ)][dS][Dab][Dab][dF]L[Dab][Dab][Thr(3ξ)]; lactam 3-C)	2 micrograms/mL	4 micrograms/mL	0.5 micrograms/mL	0.5 micrograms/mL	0.5 micrograms/mL	0.5 micrograms/mL	0.5 micrograms/mL	1 micrograms/mL	2 micrograms/mL	2 micrograms/mL	4 micrograms/mL	2 micrograms/mL	0.5 micrograms/mL	
CC(C)C[C@@H]1NC(=O)[C@@H](Cc2ccccc2)NC(=O)[C@H](CCN)NC(=O)[C@@H](NC(=O)[C@H](CCN)NC(=O)[C@@H](NC(=O)CC2CCCCC2)C(C)O)CCNC(=O)[C@H](C(C)O)NC(=O)[C@H](CCN)NC(=O)[C@H](CCN)NC1=O (stereo partly drawn) [Example C4, Cyclohexyl ethanoyl polymyxin B nonapeptide, TFA salt, reference compound] (Cyclohexylacetyl-[Thr(3ξ)][Dab][Dab][Dab][dF]L[Dab][Dab][Thr(3ξ)]; lactam 3-C)														MIC K. pneumoniae ATCC-BAA-2146 (Klebsiella pneumoniae; [14]): 1 micrograms/mL; MIC K. pneumoniae CCUG-59348 (Klebsiella pneumoniae; [14]): 2 micrograms/mL; MIC K. pneumoniae NCTC 13438 (Klebsiella pneumoniae; [14]): 0.5 micrograms/mL; MIC A. baumannii ATCC BAA-747 (Acinetobacter baumannii; [15]): 0.25 micrograms/mL; MIC A. baumannii CCUG57249 (Acinetobacter baumannii; [15]): 0.25 micrograms/mL; MIC A. baumannii NCTC 13423 (Acinetobacter baumannii; [15]): 0.125 micrograms/mL; MIC A. baumannii NCTC 13424 (Acinetobacter baumannii; [15]): 0.25 micrograms/mL; MIC E. coli ATCC25922 (Escherichia coli; [15]): 0.25 micrograms/mL; MIC E. coli NCTC9001 (Escherichia coli; [15]): 0.5 micrograms/mL; MIC P. aeruginosa ATCC 27853 (Pseudomonas aeruginosa; [15]): 0.5 micrograms/mL; MIC P. aeruginosa ATCC CRM-9027 (Pseudomonas aeruginosa; [15]): 0.5 micrograms/mL; MIC P. aeruginosa ATCC-47 (Pseudomonas aeruginosa; [15]): 1 micrograms/mL; MIC P. aeruginosa CCUG 59626 (Pseudomonas aeruginosa; [15]): 0.25 micrograms/mL
Polymyxin B nonapeptide [PMBN, reference compound]	1 micrograms/mL	4 micrograms/mL	0.25 micrograms/mL	1 micrograms/mL	0.5 micrograms/mL	0.5 micrograms/mL	0.5 micrograms/mL	1 micrograms/mL	0.125 micrograms/mL	0.125 micrograms/mL	0.25 micrograms/mL	0.125 micrograms/mL	0.25 micrograms/mL	MIC K. pneumoniae ATCC-BAA-2146 (Klebsiella pneumoniae; [16]): 2 micrograms/mL; MIC K. pneumoniae CCUG-59348 (Klebsiella pneumoniae; [16]): 4 micrograms/mL; MIC K. pneumoniae NCTC 13438 (Klebsiella pneumoniae; [16]): 2 micrograms/mL; MIC K. pneumoniae ATCC-BAA-2146 (Klebsiella pneumoniae; [17]): 2 micrograms/mL; MIC K. pneumoniae CCUG-59348 (Klebsiella pneumoniae; [17]): 4 micrograms/mL; MIC K. pneumoniae NCTC 13438 (Klebsiella pneumoniae; [17]): 2 micrograms/mL; MIC K. pneumoniae ATCC-BAA-2146 (Klebsiella pneumoniae; [18]): 2 micrograms/mL; MIC K. pneumoniae CCUG-59348 (Klebsiella pneumoniae; [18]): 8 micrograms/mL; MIC K. pneumoniae NCTC 13438 (Klebsiella pneumoniae; [18]): 2 micrograms/mL
